Data on two molecules can be found in article PMC6501426 (Clinical Epigenetics, 2019).

The term inhibition denotes the drop in the measured response relative to a control, in per cent.

One assay concerns the target T1, PKA (h) (Homo sapiens, UniProt P17612).
T1 construct: purchased Eurofins Cerep
Nature of the assay: Kinase panel (Cerep). The format is biochemical. The following applies: read-out: % inhibition at 10 µM by MC3353, PKA (h), ATP 1 μM. The method, then: (§1) The test compound, reference compound or water (control) were mixed with the enzyme (for the exact amount see table below) in the appropriate buffer. Thereafter, the reaction was initiated by adding the required amount of the appropriate substrate and of ATP, and the mixture is incubated at room temperature (variable reaction time, see table below). For control basal measurements, the enzyme was omitted from the reaction mixture. Following incubation, the reaction was stopped by adding 13 mM EDTA. After 5 min, the proper antibody labelled with europium chelate was added. After 60 more min, the fluorescence transfer was measured at λex=337 nm, λem=620 nm and λem=665 nm using a microplate reader (Envision, Perkin Elmer). The enzyme activity was determined by dividing the signal measured at 665 nm by that measured at 620 nm (ratio). The results are expressed as a percent inhibition of the control enzyme activity.

In a further assay the target is T2, GSK3beta (h) (Homo sapiens, UniProt P49841).
T2 construct: purchased Eurofins Cerep
Nature of the assay: Kinase panel (Cerep). The format is biochemical. To be noted: read-out: % inhibition at 10 µM by MC3353, GSK3beta (h), ATP 10 μM. As for the experimental part: as §1

The next assay has as its target T3, TRKA (h) (Homo sapiens, UniProt P04629).
T3 construct: purchased Eurofins Cerep
Briefly: Kinase panel (Cerep). The format is biochemical. The following applies: read-out: % inhibition at 10 µM by MC3353, TRKA (h), ATP 100 μM. As for the experimental part: as §1

The next assay deals with T4, JNK1 (h) (Homo sapiens, UniProt P45983).
T4 construct: purchased Eurofins Cerep
Briefly: Kinase panel (Cerep). The format is biochemical. The following applies: read-out: % inhibition at 10 µM by MC3353, JNK1 (h), ATP 10 μM. As for the experimental part:
as §1

Another assay addresses T5, EGFR kinase (h) (Homo sapiens, UniProt P00533).
T5 construct: purchased Eurofins Cerep
Briefly: Kinase panel (Cerep). The format is biochemical. To be noted: read-out: % inhibition at 10 µM by MC3353, EGFR kinase (h), ATP 10 μM. As for the experimental part:
as §1

Another assay addresses T6, PAK2 (h) (Homo sapiens, UniProt Q13177).
T6 construct: purchased Eurofins Cerep
Nature of the assay: Kinase panel (Cerep). It is filed as biochemical. To be noted: read-out: % inhibition at 10 µM by MC3353, PAK2 (h), ATP 50 μM. The method, then:
as §1

The target in another assay is T7, SGK1 (h) (Homo sapiens, UniProt O00141).
T7 construct: purchased Eurofins Cerep
Briefly: Kinase panel (Cerep). The format is biochemical. The following applies: read-out: % inhibition at 10 µM by MC3353, SGK1 (h), ATP 10 μM. The method, then:
as §1

In a further assay the target is T8, MARK1 (h) (Homo sapiens, UniProt Q9P0L2).
T8 construct: purchased Eurofins Cerep
Briefly: Kinase panel (Cerep). The following applies: read-out: % inhibition at 10 µM by MC3353, MARK1 (h), ATP 1 μM. It is filed as biochemical. As for the experimental part:
as §1

The next assay deals with T9, CHK1 (h) (Homo sapiens, UniProt O14757).
T9 construct: purchased Eurofins Cerep
Nature of the assay: Kinase panel (Cerep). It is filed as biochemical. The following applies: read-out: % inhibition at 10 µM by MC3353, CHK1 (h), ATP 30 μM. As for the experimental part: as §1

For assay [1], the system named is E-cadherin mRNA in PC-3 cells. Nature of the assay: qPCR of E-cadherin in PC-3. The format is cell-based, human. The following applies: MC3353 24 h; 5-AZA, DAC 5 days, effect from 1 to 5 μM. An excerpt: (§2) RNAs were extracted by ReliaPrep™ RNA Tissue Miniprep (Promega, Madison, WI, USA) and reverse transcribed with PrimeScript RT Master Mix (Takara, Kusatsu, Shiga, Japan). cDNAs were amplified by a qPCR reaction using GoTaq qPCR Master Mix (Promega) and analyzed with the oligonucleotide pairs specific for the target genes. Relative amounts, determined with the 2^(−ΔCt) method, were normalized with respect to the human housekeeping gene L32. The primers used are as follows: L32 (forward: 5′-[…]-3′, reverse: 5′-[…]-3′), E-cadherin (forward: 5′-[…]-3′, reverse: 5′-[…]-3′), and MMP2 (forward: 5′-[…]-3′, reverse: 5′-[…]-3′).
(§3) Prompted by these findings, we investigated the ability of MC3353 to modulate EMT pathway, using 5-AZA and DAC as reference drugs. […] The levels of mRNA transcripts of E-cadherin and matrix metalloproteinase-2 (MMP2) were determined. E-cadherin is involved in the maintenance of the epithelial identity and in the control of tumor invasiveness, whereas MMP2, through degradation of type IV collagen, the most abundant component of the basement membrane, controls an essential step for metastatic progression of most cancers as well as for induction of angiogenesis.
(Real-time PCR tracks product formation cycle by cycle.)

The subject of assay [2] is methylated UCHL1 promoter EGFP reporter in HCT116 cells. Nature of the assay: UCHL1 promoter demethylation assay (EGFP expression, FACS) in HCT116. It is filed as cell-based, human. The following applies: 5 days, HCT116 with methylated pUCHL1 vector. As for the experimental part:
Human colon cancer HCT116 (ATCC, VA, USA) cells were propagated in McCoy’s 5A medium (Euroclone, Milan, Italy) with 10% fetal bovine serum (FBS; Euroclone), 2 mM L-glutamine (Euroclone), and antibiotics (100 U/mL penicillin, 100 µg/mL streptomycin) (Euroclone). For the treatments with MC3353, 5-AZA, and DAC as positive controls, 2 × 10^4 cells were seeded in 6-well plates in triplicate. Cells were treated every 2 days, and the medium was changed. On day 5, cells were observed under a fluorescent microscope. The nuclei were counterstained with DAPI (10 μg/mL, Invitrogen, Tournai, Belgium).
Fluorescence of EGFP and DAPI in living cells was analyzed by Cytation™ 5 Cell Imaging Multi-Mode Reader (BioTeK, Milan, Italy).
Before the transfection, the pUMLIEP vector was linearized by with ClaI restriction enzyme (New England Biolabs, Milan, Italy) and then it was methylated by SssI-methylase (New England Biolabs, Milan, Italy) for 60 min. The methylated vector was transfected into HCT116 cells using Lipofectamine™2000 (Invitrogen, Monza, Italy) and Opti-MEM® (Gibco, Monza, Italy), and stably introduced clones were selected with puromycin (1.0 μg/mL, Sigma-Aldrich, Milan, Italy). The detailed protocol for the generation of cells highly responsive to DNA demethylating agents is described in [27].
Next, the demethylating activity of MC3353 was evaluated in cells transfected with luciferase and EGFP reporter genes driven by the UCHL1 promoter. The UCHL1 promoter is silenced by methylation in human colon cancer and can be demethylated by specific treatments, inducing expression of Metridia luciferase and EGFP reporter genes. In particular, the pUCHL1 vector, after methylation, was transfected into HCT116 colon cancer cells, and the stable clone was obtained by puromycin selection. Afterwards, cells were treated with 5-AZA (5 μM), with DAC (5 μM), or with MC3353 (0.1 μM) for 5 days. Such a low MC3353 dose was used because of its cytotoxicity at higher concentrations in long treatments.

For assay [3], the system named is E-cadherin mRNA in HCT116 cells. Briefly: qPCR of E-cadherin in HCT116. The format is cell-based, human. To be noted: MC3353 0.1 μM 24 h; 5-AZA, DAC every 2 days for 5 days at 0.1, 1, 5 μM.
Description: as §2, §3

T9 sequence (O14757 whole entry): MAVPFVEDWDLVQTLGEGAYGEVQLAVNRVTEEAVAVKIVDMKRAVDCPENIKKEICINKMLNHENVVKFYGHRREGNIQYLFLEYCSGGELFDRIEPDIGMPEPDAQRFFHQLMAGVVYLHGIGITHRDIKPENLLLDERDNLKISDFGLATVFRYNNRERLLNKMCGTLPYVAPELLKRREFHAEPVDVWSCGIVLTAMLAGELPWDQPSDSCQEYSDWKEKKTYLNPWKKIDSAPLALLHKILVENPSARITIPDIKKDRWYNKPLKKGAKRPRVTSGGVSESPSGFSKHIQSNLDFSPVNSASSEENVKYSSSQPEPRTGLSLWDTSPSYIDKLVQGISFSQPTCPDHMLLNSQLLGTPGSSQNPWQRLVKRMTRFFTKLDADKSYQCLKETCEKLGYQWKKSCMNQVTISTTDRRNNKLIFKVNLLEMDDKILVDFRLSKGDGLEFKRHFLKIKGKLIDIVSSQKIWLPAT
T8 sequence (Q9P0L2 whole entry): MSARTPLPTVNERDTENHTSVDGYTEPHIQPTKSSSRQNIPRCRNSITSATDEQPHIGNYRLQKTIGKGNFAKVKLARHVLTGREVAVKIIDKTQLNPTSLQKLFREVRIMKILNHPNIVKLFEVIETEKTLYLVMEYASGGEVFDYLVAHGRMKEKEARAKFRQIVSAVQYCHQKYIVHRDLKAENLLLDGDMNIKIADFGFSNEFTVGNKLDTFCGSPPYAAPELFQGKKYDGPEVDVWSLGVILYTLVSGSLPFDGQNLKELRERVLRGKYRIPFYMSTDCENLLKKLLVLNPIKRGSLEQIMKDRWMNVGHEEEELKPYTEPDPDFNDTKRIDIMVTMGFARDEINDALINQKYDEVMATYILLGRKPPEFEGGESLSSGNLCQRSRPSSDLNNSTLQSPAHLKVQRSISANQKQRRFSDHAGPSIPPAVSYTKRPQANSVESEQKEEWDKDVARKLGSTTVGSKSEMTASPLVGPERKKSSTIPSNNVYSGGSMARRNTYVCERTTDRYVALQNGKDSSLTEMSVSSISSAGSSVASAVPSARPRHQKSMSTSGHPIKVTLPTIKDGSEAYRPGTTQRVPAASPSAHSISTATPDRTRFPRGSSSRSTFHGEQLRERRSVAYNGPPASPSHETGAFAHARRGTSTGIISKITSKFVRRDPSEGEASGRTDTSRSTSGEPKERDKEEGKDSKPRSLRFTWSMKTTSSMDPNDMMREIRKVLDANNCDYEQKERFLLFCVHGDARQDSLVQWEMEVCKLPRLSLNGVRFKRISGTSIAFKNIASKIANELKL
T7 sequence (O00141 whole entry): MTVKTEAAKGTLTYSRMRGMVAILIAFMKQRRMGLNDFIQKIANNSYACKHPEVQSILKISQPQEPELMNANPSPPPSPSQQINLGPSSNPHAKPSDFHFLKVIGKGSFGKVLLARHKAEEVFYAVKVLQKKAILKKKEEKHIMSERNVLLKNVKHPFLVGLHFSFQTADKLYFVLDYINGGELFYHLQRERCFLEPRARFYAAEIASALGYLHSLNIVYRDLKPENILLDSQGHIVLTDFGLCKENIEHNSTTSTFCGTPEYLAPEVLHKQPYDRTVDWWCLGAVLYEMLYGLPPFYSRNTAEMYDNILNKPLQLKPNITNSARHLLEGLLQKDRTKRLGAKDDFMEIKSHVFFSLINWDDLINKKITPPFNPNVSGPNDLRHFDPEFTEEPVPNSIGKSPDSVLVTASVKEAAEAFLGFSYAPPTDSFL
T3 sequence (P04629 33-796): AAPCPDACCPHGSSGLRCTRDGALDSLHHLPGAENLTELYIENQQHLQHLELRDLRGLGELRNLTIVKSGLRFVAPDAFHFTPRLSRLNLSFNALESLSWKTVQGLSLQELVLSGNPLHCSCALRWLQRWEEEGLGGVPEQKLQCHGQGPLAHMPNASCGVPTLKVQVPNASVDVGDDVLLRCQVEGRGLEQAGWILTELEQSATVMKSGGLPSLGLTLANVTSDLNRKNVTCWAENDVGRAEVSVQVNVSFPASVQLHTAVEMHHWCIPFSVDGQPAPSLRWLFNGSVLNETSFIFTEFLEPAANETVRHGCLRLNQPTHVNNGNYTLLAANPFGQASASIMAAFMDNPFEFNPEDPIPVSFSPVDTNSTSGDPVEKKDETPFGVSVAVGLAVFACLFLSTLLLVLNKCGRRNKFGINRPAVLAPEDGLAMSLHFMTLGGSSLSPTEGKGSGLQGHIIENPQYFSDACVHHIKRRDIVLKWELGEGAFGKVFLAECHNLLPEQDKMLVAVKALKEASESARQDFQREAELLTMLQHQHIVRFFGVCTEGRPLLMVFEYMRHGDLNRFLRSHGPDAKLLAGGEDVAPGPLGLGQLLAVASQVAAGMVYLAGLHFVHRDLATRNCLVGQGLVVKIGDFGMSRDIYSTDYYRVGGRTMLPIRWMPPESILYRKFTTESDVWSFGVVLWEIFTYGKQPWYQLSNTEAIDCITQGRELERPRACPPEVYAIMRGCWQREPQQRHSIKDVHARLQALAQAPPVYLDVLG
T2 sequence (P49841 whole entry): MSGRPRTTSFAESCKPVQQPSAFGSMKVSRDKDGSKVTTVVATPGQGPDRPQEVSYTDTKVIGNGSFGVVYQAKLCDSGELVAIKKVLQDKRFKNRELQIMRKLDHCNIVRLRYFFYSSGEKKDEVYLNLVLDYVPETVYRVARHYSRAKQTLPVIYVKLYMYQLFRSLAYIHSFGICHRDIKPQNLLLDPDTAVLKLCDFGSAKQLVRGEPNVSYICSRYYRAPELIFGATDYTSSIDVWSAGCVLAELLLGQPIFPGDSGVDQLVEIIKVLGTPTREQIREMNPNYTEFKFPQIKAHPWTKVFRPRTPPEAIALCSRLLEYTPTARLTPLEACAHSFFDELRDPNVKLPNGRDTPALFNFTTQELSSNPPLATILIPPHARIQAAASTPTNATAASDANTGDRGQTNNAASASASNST
T4 sequence (P45983 whole entry): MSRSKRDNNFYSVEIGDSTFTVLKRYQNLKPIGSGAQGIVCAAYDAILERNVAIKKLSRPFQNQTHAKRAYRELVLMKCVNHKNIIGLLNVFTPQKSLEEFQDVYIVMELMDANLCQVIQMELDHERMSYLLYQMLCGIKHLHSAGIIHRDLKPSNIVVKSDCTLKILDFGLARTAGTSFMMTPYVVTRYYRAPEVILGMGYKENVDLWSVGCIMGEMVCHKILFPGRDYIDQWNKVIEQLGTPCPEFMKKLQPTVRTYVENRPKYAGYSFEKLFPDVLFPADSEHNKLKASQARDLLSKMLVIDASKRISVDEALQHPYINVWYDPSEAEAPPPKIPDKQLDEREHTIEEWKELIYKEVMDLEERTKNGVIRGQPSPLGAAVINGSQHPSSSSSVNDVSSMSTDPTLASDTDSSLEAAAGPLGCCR
T6 sequence (Q13177 whole entry): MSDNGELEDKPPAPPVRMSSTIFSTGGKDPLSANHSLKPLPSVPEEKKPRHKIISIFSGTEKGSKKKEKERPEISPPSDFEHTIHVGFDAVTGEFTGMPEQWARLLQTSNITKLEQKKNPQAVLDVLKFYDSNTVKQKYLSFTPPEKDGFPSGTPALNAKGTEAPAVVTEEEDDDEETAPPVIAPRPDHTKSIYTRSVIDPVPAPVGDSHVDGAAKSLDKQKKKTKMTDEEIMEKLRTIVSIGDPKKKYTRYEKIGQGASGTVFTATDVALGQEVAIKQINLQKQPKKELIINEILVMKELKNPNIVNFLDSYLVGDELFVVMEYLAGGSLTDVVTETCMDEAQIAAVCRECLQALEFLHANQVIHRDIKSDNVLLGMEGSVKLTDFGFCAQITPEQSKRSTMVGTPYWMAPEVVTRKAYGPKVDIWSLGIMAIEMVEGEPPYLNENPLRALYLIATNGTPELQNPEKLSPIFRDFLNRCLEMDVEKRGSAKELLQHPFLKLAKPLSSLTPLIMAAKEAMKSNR
T5 sequence (P00533 25-1210): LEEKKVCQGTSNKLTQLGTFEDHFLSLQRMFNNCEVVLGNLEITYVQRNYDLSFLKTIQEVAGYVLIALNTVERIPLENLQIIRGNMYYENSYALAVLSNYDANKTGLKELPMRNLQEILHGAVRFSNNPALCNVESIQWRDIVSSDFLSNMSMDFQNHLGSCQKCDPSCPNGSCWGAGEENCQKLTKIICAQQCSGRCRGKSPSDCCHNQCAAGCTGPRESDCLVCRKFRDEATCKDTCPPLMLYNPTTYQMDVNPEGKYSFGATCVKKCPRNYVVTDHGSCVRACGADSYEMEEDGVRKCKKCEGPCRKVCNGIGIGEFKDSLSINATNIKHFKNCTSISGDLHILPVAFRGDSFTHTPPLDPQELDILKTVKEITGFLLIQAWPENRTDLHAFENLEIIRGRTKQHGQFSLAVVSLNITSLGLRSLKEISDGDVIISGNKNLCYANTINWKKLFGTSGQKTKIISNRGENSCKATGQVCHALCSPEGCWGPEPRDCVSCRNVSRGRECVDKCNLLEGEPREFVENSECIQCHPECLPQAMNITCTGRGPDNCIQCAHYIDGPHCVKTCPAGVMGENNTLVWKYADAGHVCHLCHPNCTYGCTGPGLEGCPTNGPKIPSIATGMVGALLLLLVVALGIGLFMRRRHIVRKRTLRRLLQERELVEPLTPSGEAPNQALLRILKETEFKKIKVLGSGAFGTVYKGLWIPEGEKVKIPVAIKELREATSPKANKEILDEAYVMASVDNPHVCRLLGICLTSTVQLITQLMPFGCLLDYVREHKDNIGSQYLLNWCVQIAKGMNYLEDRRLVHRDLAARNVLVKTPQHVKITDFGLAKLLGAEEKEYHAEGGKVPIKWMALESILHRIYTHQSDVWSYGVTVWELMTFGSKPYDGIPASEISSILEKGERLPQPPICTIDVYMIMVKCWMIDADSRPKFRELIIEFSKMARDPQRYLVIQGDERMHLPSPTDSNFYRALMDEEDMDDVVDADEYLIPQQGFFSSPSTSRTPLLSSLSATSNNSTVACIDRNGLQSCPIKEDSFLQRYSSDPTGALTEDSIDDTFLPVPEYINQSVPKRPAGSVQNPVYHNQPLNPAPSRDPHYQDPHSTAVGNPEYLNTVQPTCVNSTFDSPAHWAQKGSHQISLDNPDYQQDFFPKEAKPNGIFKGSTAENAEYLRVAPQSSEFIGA

In the case of `O=C(Nc1ccc(NC(=O)c2ccc(Nc3ccnc4ccccc34)cc2)cc1)OCc1ccccc1` [MC3353, Benzyl (4-(4-(quinolin-4-ylamino)benzamido)phenyl)carbamate], the inhibition at 10 µM on PKA (h) was 27%; at GSK3beta (h), -29%; on TRKA (h) it was 67%; at JNK1 (h), -32%; at EGFR kinase (h), 5%; on PAK2 (h), -135%. Further, the values for the inhibition at 10 µM on SGK1 (h), on MARK1 (h) and on CHK1 (h) were 29%, -116% and 7%, respectively. In [1], the “E-cadherin mRNA expression, PC-3” value is “this effect was observed only at 1 μM dose”. Further, the “EGFP gene expression induction (FACS)” value in [2] (0.1 μM) stood at 81.4%. Further, the “E-cadherin mRNA expression, HCT116” value in assay [3] is given as “induced E-cadherin mRNA expression transcripts”.

Consider `Nc1ncn([C@H]2C[C@H](O)[C@@H](CO)O2)c(=O)n1` [DAC, 5-aza-2′-deoxycytidine, reference compound], for which the “E-cadherin mRNA expression, PC-3” value in assay [1] was “able to induce E-cadherin expression”. In addition, the “EGFP gene expression induction (FACS)” value in assay [2] (5 μM) is 49.7%. Also, the “E-cadherin mRNA expression, HCT116” value in assay [3] was “able to induce E-cadherin expression”.
